The values below come from patent US9499493B2, “2,4-pyrimidinediamine compounds and their uses” (Rigel Pharmaceuticals, Inc., priority 2002, dated 2016).

The subject of test [1] is bone marrow derived mast cells (BMMC). The test is described as follows: BMMC high cell density IgE activation: hexosaminidase. It is filed as cell-based, mouse. The following applies: anti-IgE, second part of TABLE 1, read-out: BMMC anti-IgE hexos. IC50. In outline: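 IgE-sensitized BMMC at 1-3×10^6 cells/ml preincubated 1 hour at 37° C. with compound (0.5% DMSO), then stimulated 1 hour with DNP-BSA (6× stimulus 60 ng/ml). Supernatant hexosaminidase measured with 2 mM 4-methylumbelliferyl-N-acetyl-glucosaminide substrate at 37° C., read at 5–30 minutes.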

In test [2] the test system is cultured human mast cells (CHMC). The test is described as follows: CHMC low cell density ionomycin activation: hexosaminidase (Hexos.) release. Format: cell-based.
Test [3] relates to basophil cells. The test is described as follows: Basophil ionomycin activation: histamine release assay. Format: cell-based, human. The following applies: Basophils. How it is done:
(§1) The basophil activation assay was carried out using whole human peripheral blood from donors allergic to dust mites with the majority of the red blood cells removed by dextran sedimentation. Human peripheral blood was mixed 1:1 with 3% dextran T500 and RBCs were allowed to settle for 20-25 min. The upper fraction was diluted with 3 volumes of D-PBS and cells were spun down for 10 min at 1500 rpm, RT. Supernatant was aspirated and cells were washed in an equal volume MT-buffer. Finally, cells were resuspended in MT-buffer containing 0.5% DMSO in the original blood volume. 80 uL cells were mixed with 20 uL compound in the presence of 0.5% DMSO, in triplicate, in a V-bottom 96-well tissue culture plate. A dose range of 8 compound concentrations was tested resulting in a 10-point dose response curve including maximum (stimulated) and minimum (unstimulated) response. […] The cells were stimulated for 30 minutes at 37° C., 5% CO2. The plate was spun for 10 min at 1500 rpm at room temperature and 80 uL the supernatant was harvested for histamine content analysis using the histamine ELISA kit supplied by Immunotech. The ELISA was performed according to supplier's instructions.
Assays for ionomycin-induced basophil cell degranulation were carried out as described for the Basophil IgE or Dustmite Activation Assay (Section 6.4.6, supra), with the exception that following incubation with compound, cells were stimulated with 20 μl of 2 μM ionomycin.

In test [4] the test system is basophil cells. The test is described as follows: Basophil IgE activation: histamine release assay. It is filed as cell-based, human. The following applies: Basophils, anti-IgE. The method, then: as §1
The subject of test [5] is cultured human mast cells (CHMC). The test is described as follows: CHMC low cell density anti-IgE activation: hexosaminidase (Hexos.) release. It is filed as cell-based.
Test [6] has as its system bone marrow derived mast cells (BMMC). The test is described as follows: BMMC high cell density ionomycin activation: hexosaminidase. It is filed as cell-based, mouse. The following applies: second part of TABLE 1, read-out: BMMC Ionomycin hexos. IC50.

A word on the pIC50: it is the IC50 on a negative log10 scale, so that one unit is a factor of ten.

The structures appear in SMILES notation. pIC50: −log10 of the molar value.

`Fc1cnc(Nc2ccc(N3CCOCC3)cc2)nc1Nc1ccc(N2CCOCC2)cc1` [R926114, N2,N4-Bis[4-(N-morpholino)phenyl]-5-fluoro-2,4-pyrimidinediamine]: the pIC50 in test [1] was under 5.00; in test [2], 5.09; in test [3], 5.00; in test [4], 5.77; in test [5], 5.47; in test [6] it was under 5.00.
